Test results published in ChEMBL document CHEMBL5331061, “Design, synthesis, and biological evaluation of Wee1 kinase degraders” (Eur J Med Chem, 2022).
The source made the active and inactive calls. The calls are words filed in the database; no cut-off is given here.

How the values were obtained:
[1] = biological target: Cyclin-dependent kinase 1 (Homo sapiens) (UniProt P06493); assay: Inhibition of CDK1 in human MV4-11 cells assessed as dephosphorylation at 50 nM pretreated for 2 hrs followed by replacement with fresh medium and measured after 24 hrs by Western blot method; assay type: cell-based; conditions: time 26.0 hrs
MV4-11 [2] = assay: Effect on PLK1 mRNA expression in human MV4-11 cells at 50 nM measured upto 72 hrs by qRT-PCR assay; assay type: functional, cell-based
[3] = biological target: Cyclin-dependent kinase 1 (Homo sapiens) (UniProt P06493); assay: Inhibition of CDK1 phosphorylation in human MV4-11 cells by measuring residual activity at 12.5 nM measured after 24 hrs by Western blot assay; assay type: cell-based
[4] = Reduction in PKMYT1 level in human MV4-11 cells by measuring residual activity at 200 nM measured after 24 hrs by Western blot assay (reference value: 100%); assay type: functional
[5] = biological target: Cyclin-dependent kinase 1 (Homo sapiens) (UniProt P06493); assay: (§1) Inhibition of CDK1 phosphorylation in human MV4-11 cells assessed as reduction in phosphorylated CDK1 level by measuring residual activity at 50 uM pretreated for 2 hrs with proteasome inhibitor lenalidomide followed by incubation with compound for 3 hrs by Western blot analysis (reference value: 29%); assay type: cell-based
[6] = Reduction in PKMYT1 level in human MV4-11 cells by measuring residual activity at 100 nM measured after 24 hrs by Western blot assay (reference value: 100%); assay type: functional
[7] = biological target: Cyclin-dependent kinase 1 (Homo sapiens) (UniProt P06493); assay: Inhibition of CDK1 phosphorylation in human MV4-11 cells by measuring residual activity at 50 nM measured after 24 hrs by Western blot assay; assay type: cell-based
[8] = Reduction in PKMYT1 level in human MV4-11 cells by measuring residual activity at 12.5 nM measured after 24 hrs by Western blot assay (reference value: 100%); assay type: functional
[9] = Downregulation of PLK1 in human MV4-11 cells assessed as 2 log fold change at 50 nM measured after 2 hrs by proteomic analysis; assay type: functional
[10] = biological target: Cyclin-dependent kinase 1 (Homo sapiens) (UniProt P06493); assay: as §1, with “carfilzomib” for “lenalidomide”; assay type: cell-based
[11] = Reduction in PKMYT1 level in human MV4-11 cells by measuring residual activity at 50 nM measured after 24 hrs by Western blot assay (reference value: 100%); assay type: functional
[12] = biological target: T1, Membrane-associated tyrosine- and threonine-specific cdc2-inhibitory kinase (Homo sapiens) (UniProt Q99640); assay: Induction of PKMYT1 degradation in human MV4-11 cells at 50 nM measured after 3 hrs by Western blot assay; assay type: cell-based
T1 sequence (whole entry): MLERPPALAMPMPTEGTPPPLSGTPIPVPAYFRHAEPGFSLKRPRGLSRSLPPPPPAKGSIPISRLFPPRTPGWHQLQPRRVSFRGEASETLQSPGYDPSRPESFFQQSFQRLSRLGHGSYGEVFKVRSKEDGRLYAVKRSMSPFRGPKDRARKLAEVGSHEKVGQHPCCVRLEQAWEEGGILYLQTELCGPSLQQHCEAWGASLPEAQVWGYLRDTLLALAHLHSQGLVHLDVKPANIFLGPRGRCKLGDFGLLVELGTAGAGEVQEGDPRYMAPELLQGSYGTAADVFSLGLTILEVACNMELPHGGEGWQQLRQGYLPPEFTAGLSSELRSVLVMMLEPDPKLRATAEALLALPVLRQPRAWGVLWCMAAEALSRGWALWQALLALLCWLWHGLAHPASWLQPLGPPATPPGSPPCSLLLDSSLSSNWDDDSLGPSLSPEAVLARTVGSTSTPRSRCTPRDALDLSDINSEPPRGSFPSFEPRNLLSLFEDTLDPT

[13] = biological target: Cyclin-dependent kinase 1 (Homo sapiens) (UniProt P06493); assay: Inhibition of CDK1 phosphorylation in human MV4-11 cells assessed as reduction in phosphorylated CDK1 level by measuring residual activity at 50 uM pretreated for 2 hrs with proteasome inhibitor Bortezomib followed by incubation with compound for 3 hrs by Western blot analysis (reference value: 29%); assay type: cell-based
[14] = biological target: Cyclin-dependent kinase 1 (Homo sapiens) (UniProt P06493); assay: Inhibition of CDK1 phosphorylation in human MV4-11 cells by measuring residual activity at 200 nM measured after 24 hrs by Western blot assay; assay type: cell-based
MV4-11 [15] = assay: Effect on PKMYT1 mRNA expression in human MV4-11 cells at 50 nM measured upto 72 hrs by qRT-PCR assay; assay type: functional, cell-based
[16] = Observed AUCinfinity ICR mouse at 10 mg/kg, iv measured upto 360 mins; assay type: ADME, organism-based; design: dose 10 mg/kg, time < 360 min, route iv; conditions: in vivo
[17] = AUClast in ICR mouse at 10 mg/kg, iv measured upto 360 mins; assay type: ADME, organism-based; design: dose 10 mg/kg, time < 360 min, route iv; conditions: in vivo
[18] = biological target: Cyclin-dependent kinase 1 (Homo sapiens) (UniProt P06493); assay: Inhibition of CDK1 phosphorylation in human MV4-11 cells assessed as reduction in phosphorylated CDK1 level by measuring residual activity at 50 uM pretreated for 2 hrs with proteasome inhibitor Iberdomide followed by incubation with compound for 3 hrs by Western blot analysis (reference value: 29%); assay type: cell-based
[19] = Downregulation of JAK2 in human MV4-11 cells assessed as 2 log fold change at 50 nM measured after 2 hrs by proteomic analysis; assay type: functional
[20] = Observed MRTinfinity ICR mouse at 10 mg/kg, iv measured upto 360 mins; assay type: ADME, organism-based; conditions: in vivo
MV4-11 [21] = assay: Effect on Wee1 mRNA expression in human MV4-11 cells at 50 nM measured upto 72 hrs by qRT-PCR assay; assay type: functional, cell-based
MV4-11 [22] = assay: Induction of apoptosis in human MV4-11 cells assessed as cleaved PARP expression at 100 nM incubated for 24 hrs by Western blot analysis; assay type: functional, cell-based
MV4-11 [23] = assay: Induction of apoptosis in human MV4-11 cells assessed as increase in early apoptotic cells incubated for 48 hrs by annexin V and PI staining based flow cytometry analysis; assay type: functional, cell-based; conditions: dose 12.5-200 nM
MV4-11 [24] = assay: Induction of cell cycle arrest in human MV4-11 cells assessed as accumulation of cells at G0/G1 phase incubated for 24 hrs by […] PI staining based flow cytometry analysis; assay type: functional; conditions: dose 12.5-200 nM
[25] = Half life in ICR mouse at 10 mg/kg, iv measured upto 360 mins; assay type: ADME, organism-based; conditions: in vivo
[26] = biological target: Cyclin-dependent kinase 1 (Homo sapiens) (UniProt P06493); assay: Inhibition of CDK1 phosphorylation in human MV4-11 cells by measuring residual activity at 100 nM measured after 24 hrs by Western blot assay; assay type: cell-based
[27] = biological target: Serine/threonine-protein kinase PLK1 (Homo sapiens, UniProt P53350); assay: Inhibition of PLK1 (unknown origin)
MV4-11 [28] = assay: Effect on PLK1 expression in human MV4-11 cells at IC50 measured after 6 hrs by Western blot analysis; assay type: functional, cell-based
MV4-11 [29] = assay: Induction of […] in human MV4-11 cells assessed as change in gammaH2AX level at 12.5 to 200 nM measured after 24 hrs by Western blot analysis; assay type: functional, cell-based; conditions: dose 12.5-200 nM
MV4-11 [30] = assay: Induction of apoptosis in human MV4-11 cells assessed as increase in late apoptotic cells incubated for 48 hrs by annexin V and PI staining based flow cytometry analysis; assay type: functional, cell-based; conditions: dose 12.5-200 nM
[31] = Downregulation of MAP3K4 in human MV4-11 cells assessed as 2 log fold change at 50 nM measured after 2 hrs by proteomic analysis; assay type: functional
[32] = Reduction in PKMYT1 level in human MV4-11 cells by measuring residual activity at 25 nM measured after 24 hrs by Western blot assay (reference value: 100%); assay type: functional
MV4-11 [33] = assay: Induction of apoptosis in human […] -/- MV4-11 cells at 50 to 400 nM measured after 48 hrs by AnnexinV/PI staining based flow cytometry analysis; assay type: functional, cell-based; conditions: dose 50-400 nM
[34] = biological target: Cyclin-dependent kinase 1 (Homo sapiens) (UniProt P06493); assay: Inhibition of CDK1 phosphorylation in human MV4-11 cells by measuring residual activity at 25 nM measured after 24 hrs by Western blot assay; assay type: cell-based
MV4-11 [35] = assay: Induction of apoptosis in human MV4-11 cells assessed as cleaved caspase-3 expression at 100 nM incubated for 24 hrs by Western blot analysis; assay type: functional, cell-based

Cyclin-dependent kinase 1 (Homo sapiens), sequence (P06493 whole entry, looked up): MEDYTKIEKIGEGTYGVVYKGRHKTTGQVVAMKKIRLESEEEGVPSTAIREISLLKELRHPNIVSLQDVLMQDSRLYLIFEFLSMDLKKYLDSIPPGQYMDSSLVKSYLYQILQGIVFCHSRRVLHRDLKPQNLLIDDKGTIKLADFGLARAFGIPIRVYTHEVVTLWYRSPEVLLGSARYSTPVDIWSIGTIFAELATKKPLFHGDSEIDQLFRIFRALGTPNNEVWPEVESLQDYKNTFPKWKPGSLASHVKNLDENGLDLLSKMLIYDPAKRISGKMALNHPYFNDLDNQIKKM
Serine/threonine-protein kinase PLK1, sequence (P53350 whole entry): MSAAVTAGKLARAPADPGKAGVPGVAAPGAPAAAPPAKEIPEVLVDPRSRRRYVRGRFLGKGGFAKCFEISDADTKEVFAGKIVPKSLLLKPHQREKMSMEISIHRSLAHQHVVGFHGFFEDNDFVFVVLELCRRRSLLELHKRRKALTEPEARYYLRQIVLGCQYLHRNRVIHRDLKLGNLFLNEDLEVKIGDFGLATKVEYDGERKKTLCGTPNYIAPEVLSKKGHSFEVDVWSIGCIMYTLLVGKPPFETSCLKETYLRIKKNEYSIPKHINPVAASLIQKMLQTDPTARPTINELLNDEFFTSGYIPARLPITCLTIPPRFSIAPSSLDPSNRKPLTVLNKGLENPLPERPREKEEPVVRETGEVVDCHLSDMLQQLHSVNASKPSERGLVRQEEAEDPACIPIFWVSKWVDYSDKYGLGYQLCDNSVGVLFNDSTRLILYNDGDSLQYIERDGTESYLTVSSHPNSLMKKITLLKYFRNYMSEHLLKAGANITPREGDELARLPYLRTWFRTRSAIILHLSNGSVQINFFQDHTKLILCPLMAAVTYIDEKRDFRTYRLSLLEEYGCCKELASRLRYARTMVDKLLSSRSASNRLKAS

inhibition [1]: Active | Activity [3]: 88% | Activity [5]: 102% | Activity [7]: 50% | Activity [10]: 96% | Activity [12]: Active | Activity [13]: 120% | Activity [14]: 20% | AUC(0-inf) [16]: 4660 ng·h/mL | AUC(0-t) at 6 h [17]: 4580 ng·h/mL | Activity [18]: 75% | MRT inf [20]: 0.943 h | half-life [25]: 1.31 h | Activity [26]: 22% | IC50 [27]: 2970 nM | Activity [34]: 80%
SMILES: C=CCn1c(=O)c2cnc(Nc3ccc(N4CCN(CCCCNc5cccc6c5C(=O)N(C5CCC(=O)NC5=O)C6=O)CC4)cc3)nc2n1-c1cccc(C(C)(C)O)n1 (stereo not given)
Activity (MV4-11 [2]): inactive | Activity [4]: 25% | Activity [6]: 37% | Activity [8]: 113% | FC [9]: 0.38 | Activity [11]: 38% | Activity (MV4-11 [15]): inactive | FC [19]: -0.1 | Activity (MV4-11 [21]): inactive | Activity (MV4-11 [22]): Active | Activity (MV4-11 [23]): Dose-Dependent Effect | Activity (MV4-11 [24]): Dose-Dependent Effect | Activity (MV4-11 [28]): inactive | Activity (MV4-11 [29]): inactive | Activity (MV4-11 [30]): Dose-Dependent Effect | FC [31]: -0.06 | Activity [32]: 99% | Activity (MV4-11 [33]): inactive | Activity (MV4-11 [35]): Active
